Measurements taken from PubChem BioAssay (NCI).
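Briefly, cells in 96-well plates were exposed to five compound concentrations for 48 h, and endpoints were estimated by linear interpolation. TGI marks complete inhibition of growth.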

Columns and labels:
Assay in all cases: NCI-60 cell line screen, 48 h
T-47D breast = test system: T-47D breast
KM12 colon = test system: KM12 colon
EKVX NSCLC = test system: EKVX NSCLC
RXF 393 renal = test system: RXF 393 renal
NCI-H460 lung = test system: NCI-H460 lung
SW-620 colon = test system: SW-620 colon
SK-MEL-28 melanoma = test system: SK-MEL-28 melanoma
NCI-H226 lung = test system: NCI-H226 lung
MDA-N = test system: MDA-N
COLO 205 colon = test system: COLO 205 colon
SK-OV-3 ovarian = test system: SK-OV-3 ovarian

Row | Compound | TGI (T-47D breast) | TGI (KM12 colon) | TGI (EKVX NSCLC) | TGI (RXF 393 renal) | TGI (NCI-H460 lung) | TGI (SW-620 colon) | TGI (SK-MEL-28 melanoma) | TGI (NCI-H226 lung) | TGI (MDA-N) | TGI (COLO 205 colon) | TGI (SK-OV-3 ovarian)
1 | CC(=O)/C(=C/n1c(=S)sc2ccccc21)C(=O)Nc1ccccc1C | > 100 µM | > 100 µM | > 100 µM | > 100 µM | > 100 µM | > 100 µM | > 100 µM | > 100 µM | > 100 µM | > 100 µM | > 100 µM
2 | O=C1/C(=C/c2ccc([N+](=O)[O-])cc2)CNC/C1=C\c1ccc([N+](=O)[O-])cc1 | > 81.3 µM | 4.41 µM | 33.9 µM | 25.1 µM | 12.7 µM | 1.78 µM | 5.49 µM | > 57.5 µM | 25.5 µM | 28.3 µM | > 100 µM
3 | CSc1c(C(=O)Nc2ccc(C)cc2)c(N)[nH]c(=O)c1C#N | > 100 µM | > 100 µM | > 100 µM | > 100 µM | > 100 µM | > 100 µM | > 100 µM | > 100 µM | > 100 µM | > 100 µM | > 100 µM
4 | CN1C(=O)CN(NC(=O)C2=C(O)c3ccc(Br)cc3S(=O)(=O)N2)C1=S | > 100 µM | > 100 µM | > 100 µM | > 100 µM | > 100 µM | > 100 µM | > 100 µM | > 100 µM | > 100 µM | > 100 µM | > 100 µM
5 | CC1CC(C#N)=C2NCCCCN2C1=O (stereo not given) | > 100 µM | > 100 µM | > 100 µM | > 100 µM | > 100 µM | > 100 µM | > 100 µM | > 100 µM | > 100 µM | > 100 µM | > 100 µM
6 | CCC[C@H](C)[C@H]1NC(=O)[C@@H](NC(=O)[C@@H](CC(C)C)N(C)C(=O)C2CCCN2C(=O)[C@H](C)O)[C@@H](C)OC(=O)[C@H](CC(C)C)N(C)C(=O)[C@@H]2CCCN2C(=O)[C@H](CC(C)C)NC(=O)[C@@H](C)C(=O)[C@H](C(C)C)OC(=O)C[C@@H]1O (stereo not given in full) | 0.25 µM | 1.27 µM | 0.339 µM | 0.016 µM | 0.0289 µM | 0.00524 µM | < 0.0025 µM | 0.0622 µM | 0.0205 µM | < 0.0025 µM | 0.14 µM
7 | CCOC(=O)c1cnc2[nH]ccn2c1=O | > 10 µM | > 10 µM | > 10 µM | > 10 µM | > 10 µM | > 10 µM | > 10 µM | > 10 µM | > 10 µM | > 10 µM | > 10 µM
8 | Nc1ncnc2c1ncn2C(=O)NC12CC3CC(CC(C3)C1)C2 | > 100 µM | > 100 µM | > 100 µM | > 100 µM | > 100 µM | > 100 µM | > 100 µM | > 100 µM | > 100 µM | > 100 µM | > 100 µM
9 | N#Cc1c(OCCF)c2ccccc2n2c1nc1ccccc12 | > 100 µM | > 100 µM | > 100 µM | > 100 µM | > 100 µM | > 100 µM | > 100 µM | > 100 µM | > 100 µM | > 100 µM | > 100 µM
10 | O=C1OC[C@@H]2Cc3c([nH]c4ccccc34)[C@@H](c3ccc(O)cc3)N12 | > 100 µM | 53.1 µM | > 100 µM | 64.3 µM | 81.4 µM | > 100 µM | > 100 µM | 80.1 µM | > 100 µM | 40.9 µM | > 95.1 µM
